# Measured values published in patent US20220168392A1 (priority 2019, published 2022).
# Square brackets hold non-standard residues; d marks the D form. * marks the point of attachment. 2Nal = N[C@@H](Cc1ccc2ccccc2c1)C(=O)O; Propionyl = CCC(=O)*; Sar = CNCC(=O)O
# Tested on: CD2F1 mice exposed to TBI (7 Gy)
# Assay: Sternal bone marrow histopathology (cellularity, megakaryocytes) after 7 Gy TBI
# Format: in vivo, mouse
# Settings: day 7 post-TBI 7 Gy; 24 h pre-TBI administration
# Protocol: Sternal histopathology: Following blood collection, animals were euthanized, and the sterna were collected on 0 (2 h post-TBI), 1, 3, 7, 15 and 30 days post-TBI. The sterna were fixed in a 20:1 volume of fixative (10^0/% buffered formalin) to tissue for at least 24 h and up to 7 days. Fixed sterna were decalcified for 3 h in 12-18% sodium EDTA (pH 7.4-7.5), and specimens were dehydrated using graded ethanol concentrations and embedded in paraffin. Longitudinal 5 μm sections were stained with regular hematoxylin and eosin (H&E) stain. A board-certified veterinary pathologist conducted blinded histopathological evaluation of these samples. The bone marrow was evaluated in situ within sternebrae and graded for total cellularity and megakaryocyte numbers averaged per 10 high power fields at 40× magnification using a BX41 Olympus microscope (Olympus Corporation, Minneapolis, Minn.). […]
# Bone marrow cellularity and architecture of CD2F1 mice treated 24 h pre-TBI with vehicle or RWJ-800088 were evaluated by the AFRRI pathologist (FIG. 8). Bone marrow cellularity was determined by evaluating the amount of adipose (fat) tissue versus hematopoietic cells (minus, mature red blood cells) on one (10×) high power field (HPF). […]
# Samples were collected on different days post-TBI up to day 30. […] Megakaryocytes were evaluated by averaging the number of cells per 10 (40×) high power fields (HPFs). […]
substance,measurement,value
methoxypolyethyleneglycol20000-propionyl-L-Isoleucyl-L-Glutamyl-Glycyl-L-Prolyl-L-Threonyl-L-Leucyl-L-Arginyl-L-Glutaminyl-L-2-Naphthylalanyl-L-Leucyl-L-Alanyl-L-Alanyl-L-Arginyl-Sarcosyl-Ne-(methoxypolyethyleneglycol20000-propionyl-L-Isoleucyl-L-Glutamyl-Glycyl-L-Prolyl-L-Threonyl-L-Leucyl-L-Arginyl-L-Glutaminyl-L-2-Naphthylalanyl-L-Leucyl-L-Alanyl-L-Alanyl-L-Arginyl-Sarcosyl-)-Lysinamide ({mPEG 20 kDa-Propionyl}-IEGPTLRQ[2Nal]LAAR[Sar]K-NH2; also: dimer: second identical mPEG-propionyl chain on Lys Nε of C-terminal lysinamide) [RWJ-800088],megakaryocytes counts in sternal bone marrow,significant recovery
